Test results published in patent US5633248A, “Amine compounds, their production and use” (priority 1994, dated 1997).
Counter-ions that a name gives are not always drawn.

Experiments:
Rat GnRH Receptor = target: T1, Rat GnRH Receptor (Rattus norvegicus, UniProt P30969); test: ^125 I-leuprolerin binding inhibition, rat anterior pituitary membrane fraction; design: species or system rat (Wistar); details: 4° C. for 90 minutes, read-out: GnRH-receptor binding inhibitory activity (IC50, μM) Rat
T1 construct: from tissue; host or cells: anterior pituitary of male Wistar rats (8 weeks old), membrane fraction
T1 sequence (P30969 1-327): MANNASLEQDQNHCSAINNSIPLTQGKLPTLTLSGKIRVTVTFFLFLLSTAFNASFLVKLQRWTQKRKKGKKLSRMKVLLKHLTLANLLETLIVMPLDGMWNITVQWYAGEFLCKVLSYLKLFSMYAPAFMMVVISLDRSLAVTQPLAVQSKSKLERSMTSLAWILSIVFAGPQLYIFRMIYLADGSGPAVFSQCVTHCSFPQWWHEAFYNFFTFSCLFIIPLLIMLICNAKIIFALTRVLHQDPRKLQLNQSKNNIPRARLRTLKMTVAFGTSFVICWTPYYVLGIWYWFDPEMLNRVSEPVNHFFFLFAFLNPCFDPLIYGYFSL
Procedure: A tube was filled with 10 μl of an aqueous solution of leuprolerin (3×10^4 M) and lactoperoxidase (0.01 mg/ml) followed by addition of 10 μl of Na^125 I solution (37 MBq). After stirring, 10 μl of 0.001% H2 O2 was added and the reaction was conducted at room temperature for 20 minutes. The reaction was stopped by adding 700 μl of 0.05% TFA and the reaction mixture was subjected to reversed-phase HPLC under the conditions set forth below. ^125 I-leuprolerin was eluted with a retention time of 26-27 minutes. Forty rats (8 weeks old, male) of Wistar strain were decapitated under no anesthesia and the anterior pituitary isolated from each animal was washed with an ice-cooled homogenate buffer (25 mM Tris (tris(hydroxylmethyl)aminomethane)-HCl, 0.3M sucrose, 1 mM EGTA (ethylene-bis(oxyethylenenitrilo)tetraacetic acid), 0.25 mM PMSF (phenylmethylsulfonyl fluoride), 10 U/ml aprotinin, 1 μg/ml pepstatin, 20 μg/ml leupeptin, 100 μg/ml phosphoramidon, 0.03% sodium azide; pH 7.5). The anterior pituitary was suspended in 2 ml of the same homogenate buffer as above and homogenized using a Polytron homogenizer. The homogenate thus prepared was centrifuged at 700 xg for 15 minutes and the supernatant was transferred to an ultracentrifuge cuvette and further centrifuged at 100,000 xg for 1 hour to provide a membrane fraction pellet. This pellet was suspended in 2 ml of an assay buffer (25 mM Tris-HCl, 1 mM ethylenediaminetetraacetic acid (EDTA), 0.1% bovine serum albumin (BSA), 0.25 mM PMSF, 1 μg/ml pepstatin, 20 μg/ml leupeptin, 100 μg/ml phosphoramidon, 0.03% sodium azide; pH 7.5) and centrifuged at 100,000 xg for 1 hour. The membrane fraction recovered as a pellet was resuspended in 10 ml of the same assay buffer as above, distributed into vials, preserved at -80° C., and reconstituted before use. The rat and human membrane fractions prepared under (B) and (D) were respectively diluted with the assay buffer to make 200 μg/ml each and 188 μl aliquots of each dilution were distributed into tubes. The bovine membrane fraction prepared under (C) was diluted with the assay buffer to make 750 μg/ml and 188 μl aliquots of the dilution were distributed into tubes. When the rat anterior pituitary membrane fraction was used, 2 μl of 0.1 mM compound/60% dimethyl sulfoxide (DMSO) and 10 μl of 38 nM ^125 I-leuprolerin were concurrently added. […] For determination of maximum binding, a reaction mixture was prepared by adding 2 μl of 60% DMSO and 10 μl of 38 nM ^125 I-leuprolerin. For determination of non-specific binding, a reaction mixture was prepared using 2 μl of 100 μM leuprolerin/60% DMSO and 10 μl of […] ^125 I-leuprolerin. When the rat and bovine anterior pituitary membrane fractions were used, each reaction was carried out at 4° C. for 90 minutes. On the other hand, when the human GnRH receptor-expressed CHO cell membrane fraction was used, the reaction was conducted at 25° C. for 60 minutes. After completion of the reaction, the reaction mixture was suction-filtered through a polyethyleneimine-treated Whatman glass filter (GF-F) [trademark;whatman]. After filtration, the radioactivity of the residual ^125 I-leuprolerin on the filter was measured using a γ-counter. The computation formula of (TB-SB)/(TB-NSB)×100 (SB=radioactivity bound in the presence of the test compound, TB=maximum amount of radioactivity bound, NSB=amount of radioactivity nonspecifically bound) was calculated to find the binding inhibition rate for the test compound. Moreover, the inhibition rate was determined by varying the concentration of each test compound and the concentration of the compound causing 50% inhibition of binding (IC50 value) was calculated by Hill plot.

Human GnRH receptor = target: T2, Human GnRH receptor (Homo sapiens, UniProt P30968); test: ^125 I-leuprolerin binding inhibition, human GnRH receptor-expressed CHO cell membrane fraction; details: 25° C. for 60 minutes, read-out: GnRH-receptor binding inhibitory activity (IC50, μM) Man
T2 construct: expressed in transfected cells; host or cells: CHO (Chinese hamster ovary) cells, membrane fraction
T2 sequence (P30968 1-328): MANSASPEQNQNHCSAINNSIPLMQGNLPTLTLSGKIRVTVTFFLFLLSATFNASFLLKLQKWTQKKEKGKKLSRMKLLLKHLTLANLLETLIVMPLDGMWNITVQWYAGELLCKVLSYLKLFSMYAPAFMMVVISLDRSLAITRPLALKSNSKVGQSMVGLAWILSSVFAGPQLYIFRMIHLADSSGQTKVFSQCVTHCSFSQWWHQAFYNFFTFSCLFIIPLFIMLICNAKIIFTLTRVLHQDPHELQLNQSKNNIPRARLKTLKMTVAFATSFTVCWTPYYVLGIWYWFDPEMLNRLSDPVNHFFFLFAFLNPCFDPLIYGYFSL
Procedure: A tube was filled with 10 μl of an aqueous solution of leuprolerin (3×10^4 M) and lactoperoxidase (0.01 mg/ml) followed by addition of 10 μl of Na^125 I solution (37 MBq). After stirring, 10 μl of 0.001% H2 O2 was added and the reaction was conducted at room temperature for 20 minutes. The reaction was stopped by adding 700 μl of 0.05% TFA and the reaction mixture was subjected to reversed-phase HPLC under the conditions set forth below. ^125 I-leuprolerin was eluted with a retention time of 26-27 minutes. […] To the sediment was added 10 ml of a cell homogenate buffer (10 mM NaHCO3, 5 mM EDTA, pH 7.5) and the mixture was homogenized using a Polytron homogenizer. The homogenate was centrifuged at 400 xg for 15 minutes and the supernatant was transferred to an ultracentrifuge cuvette and centrifuged at 100,000 xg for 1 hour to prepare a membrane fraction pellet. This pellet was suspended in 2 ml of the assay buffer and further centrifuged at 100,000 xg for 1 hour. The membrane fraction recovered as a pellet was resuspended in 20 ml of the assay buffer, distributed into vials, preserved at -80° C., and reconstituted before use. The rat and human membrane fractions prepared under (B) and (D) were respectively diluted with the assay buffer to make 200 μg/ml each and 188 μl aliquots of each dilution were distributed into tubes. The bovine membrane fraction prepared under (C) was diluted with the assay buffer to make 750 μg/ml and 188 μl aliquots of the dilution were distributed into tubes. When the rat anterior pituitary membrane fraction was used, 2 μl of 0.1 mM compound/60% dimethyl sulfoxide (DMSO) and 10 μl of 38 nM ^125 I-leuprolerin were concurrently added. […] For determination of maximum binding, a reaction mixture was prepared by adding 2 μl of 60% DMSO and 10 μl of 38 nM ^125 I-leuprolerin. For determination of non-specific binding, a reaction mixture was prepared using 2 μl of 100 μM leuprolerin/60% DMSO and 10 μl of […] ^125 I-leuprolerin. When the rat and bovine anterior pituitary membrane fractions were used, each reaction was carried out at 4° C. for 90 minutes. On the other hand, when the human GnRH receptor-expressed CHO cell membrane fraction was used, the reaction was conducted at 25° C. for 60 minutes. After completion of the reaction, the reaction mixture was suction-filtered through a polyethyleneimine-treated Whatman glass filter (GF-F) [trademark;whatman]. After filtration, the radioactivity of the residual ^125 I-leuprolerin on the filter was measured using a γ-counter. The computation formula of (TB-SB)/(TB-NSB)×100 (SB=radioactivity bound in the presence of the test compound, TB=maximum amount of radioactivity bound, NSB=amount of radioactivity nonspecifically bound) was calculated to find the binding inhibition rate for the test compound. Moreover, the inhibition rate was determined by varying the concentration of each test compound and the concentration of the compound causing 50% inhibition of binding (IC50 value) was calculated by Hill plot.

IC50 (Rat GnRH Receptor) [µM]	IC50 (Human GnRH receptor) [µM]	Compound
0.3		COc1ccc2c(c1)CCC1(CCCCN1CCCC(CCNC(C)=O)(c1ccccc1)c1ccccc1)C2 (centres unmarked) [II-37, 3,4-Dihydro-6-methoxy-1'-(6-acetylamino-4,4-diphenylhexyl)spiro[naphthalene-2(1H),2'-piperidine] dihydrochloride]
0.2		COc1cc2c(cc1OC)CC(N(CCCC(CCCNC(C)=O)(c1ccccc1)c1ccccc1)Cc1ccccc1)CC2 (centres unmarked) [II-43, 7-Acetylamino-1-{N-benzyl-N-[2-(6,7-dimethoxy-1,2,3,4-tetrahydronaphthyl)]amino}-4,4-diphenylheptane dihydrochloride]
0.4		COc1cccc2c1CC1(CCCCN1CCCC(CCCNC(C)=O)(c1ccccc1)c1ccccc1)CC2 (centres unmarked) [II-44, 1'-(7-Acetylamino-4,4-diphenylheptyl)-3,4-dihydro-8-methoxyspiro[naphthalene-2(1H),2'-piperidine] dihydrochloride]
0.08		COc1ccc2c(c1)CCC1(CCCCN1CCCC(CCCNC(C)=O)(c1ccccc1)c1ccccc1)C2 (centres unmarked) [II-45, 1'-(7-Acetylamino-4,4-diphenylheptyl)-3,4-dihydro-6-methoxyspiro[naphthalene-2(1H),2'-piperidine] dihydrochloride]
0.003		COc1cc2c(cc1OC)CC1(CCCCN1CCCC(CCCNC(C)=O)(c1ccccc1)c1ccccc1)CC2 (centres unmarked) [II-46, 1'-(7-Acetylamino-4,4-diphenylheptyl)-3,4-dihydro-6,7-dimethoxyspiro[naphthalene-2(1H),2'-piperidine] dihydrochloride]
0.002	0.2	COc1cc2c(cc1OC)CC1(CCCCN1CCCC(CCCNC(=O)Cc1ccccc1)(c1ccccc1)c1ccccc1)CC2 (centres unmarked) [II-48, 3,4-Dihydro-6,7-dimethoxy-1'-[4,4-diphenyl-7-(phenylacetylamino)heptyl]spiro[naphthalene-2(1H),2'-piperidine] hydrochloride]
0.0007	0.08	COc1cc2c(cc1OC)CC1(CCCCN1CCCC(CCCNC(=O)Cc1ccc(F)cc1)(c1ccccc1)c1ccccc1)CC2 (centres unmarked) [II-50, 3,4-Dihydro-6,7-dimethoxy-1'-{4,4-diphenyl-7-[(4-fluorophenylacetyl)amino]heptyl}spiro[naphthalene-2(1H),2'-piperidine] hydrochloride]
0.002	0.08	COc1cc2c(cc1OC)CC1(CCCCN1CCCC(CCCNC(=O)Cc1ccc(Cl)cc1)(c1ccccc1)c1ccccc1)CC2 (centres unmarked) [II-51, 3,4-Dihydro-6,7-dimethoxy-1'-{4,4-diphenyl-7-[(4-chlorophenylacetyl)amino]heptyl}spiro[naphthalene-2(1H),2'-piperidine] hydrochloride]
0.01	0.8	COc1cc2c(cc1OC)CC1(CCCCN1CCCC(CCCNC(=O)Cc1ccc([N+](=O)[O-])cc1)(c1ccccc1)c1ccccc1)CC2 (centres unmarked) [II-53, 3,4-Dihydro-6,7-dimethoxy-1'-{4,4-diphenyl-7-[(4-nitrophenylacetyl)amino]heptyl}spiro[naphthalene-2(1H),2'-piperidine] hydrochloride]
0.0016	0.11	COc1ccc(CC(=O)NCCCC(CCCN2CCCCC23CCc2cc(OC)c(OC)cc2C3)(c2ccccc2)c2ccccc2)cc1 (centres unmarked) [II-58, 3,4-Dihydro-6,7-dimethoxy-1'-{4,4-diphenyl-7-[(4-methoxyphenylacetyl)amino]heptyl}spiro[naphthalene-2(1H),2'-piperidine] hydrochloride]
0.02	0.4	COc1ccc(CC(=O)NCCCC(CCCN2CCCCC23CCc2cc(OC)c(OC)cc2C3)(c2ccccc2)c2ccccc2)cc1OC (centres unmarked) [II-59, 3,4-Dihydro-6,7-dimethoxy-1'-{7-[(3,4-dimethoxyphenylacetyl)amino]-4,4-diphenylheptyl}spiro[naphthalene-2(1H),2'-piperidine] hydrochloride]
0.002	0.1	COc1cc2c(cc1OC)CC1(CCCCN1CCCC(CCCNC(=O)Cc1ccc3c(c1)OCO3)(c1ccccc1)c1ccccc1)CC2 (centres unmarked) [II-60, 3,4-Dihydro-6,7-dimethoxy-1'-{4,4-diphenyl-7-[(3,4-methylenedioxyphenylacetyl)amino]heptyl}spiro[naphthalene-2(1H),2'-piperidine] hydrochloride]
0.01		COc1cc2c(cc1OC)CC1(CCCCN1CCCC(CCCNC(=O)COc1ccccc1)(c1ccccc1)c1ccccc1)CC2 (centres unmarked) [II-61, 3,4-Dihydro-6,7-dimethoxy-1'-{4,4-diphenyl-7-[(phenoxyacetyl)amino]heptyl}spiro[naphthalene-2(1H),2'-piperidine] hydrochloride]
